# Read-outs that look alike come from different tables or passages of the source.
# How the values were obtained:
# [1] = DPPH microplate radical scavenging antioxidant assay; format: biochemical; settings: for IC50: DPPH, 30 min, mean ± SD (n = 3)
# Procedure: The antioxidant activity of the synthesized compounds was measured in terms of hydrogen-donating or radical scavenging ability using the DPPH microplate-based method. Absorbance measurement was obtained using Microplate/cuvette reader (Spectramax M5, Molecular Devices, California, USA). Reference standard compound ascorbic acid was used as the positive control for this assay at concentrations ranging from 1.563 to 200 μg/mL. Test samples were prepared at a starting concentration of 200 μg/mL after mixing with 100 μl of 0.2 mM DPPH methanolic solution. A series of concentrations were tested for the samples in order to determine the 50% inhibitory concentration (IC50). Samples were incubated with DPPH in the dark for 30 min at room temperature (25° C.). The DPPH solution in methanol was prepared daily and stored in a flask covered with aluminum foil. DPPH radicals have an absorption maximum (λmax) at 515 nm, in which the absorbance values were measured and converted into percentage of antioxidant activity.
# Methanolic DPPH solution without antioxidant was applied as control and background control was samples in methanol only. IC50 was determined using Graphpad Prism 7 (Graphpad Software Inc. CA, USA). The percentage inhibition was calculated by using the formula:
# The assay was carried out in triplicate and performed as much as possible in an area protected against light. The data points are presented as the mean±standard deviation (SD) (n=3).
# [2] = tested on: Bacillus megaterium ATCC 9885; experiment: Agar well diffusion, primary antimicrobial screening; format: cell-based; settings: for zone of inhibition at 10000 µg/mL: Priestia megaterium, ATCC9885, B. megaterium ATCC 9885, 100 μL of 10 mg/ml in DMSO, 24 h, read-out: Inhibition Diameter Zone BM; for antibacterial activity compared with ciprofloxacin: B. megaterium
# Description: (§1) The newly synthesized compounds were individually tested for their in vitro antimicrobial activity against the standard bacteria strains of American Type Culture Collection (ATCC), namely, Staphylococcus aureus ATCC 29213, Bacillus subtilis ATCC 6633, Bacillus megaterium ATCC 9885 (Gram-positive), Escherichia coli ATCC 2592 and Pseudomonas aeruginosa ATCC 27953 (Gram-negative). In addition, they were microbiologically tested against the locally isolated Saccharomyces cerevisiae (yeast) and the standard strain of Agricultural Research Service Culture Collection (NRRL) of the yeast like pathogenic fungus Candida albicans NRRL Y-477. The primary screening was carried out using the agar well diffusion method using nutrient agar (NA) medium and Sabourand dextrose agar (SDA) medium for pathological tested bacteria and yeast, respectively.
# (§2) Antimicrobial tests were carried out by the agar well diffusion method using 100 μL of suspension containing 1×10^8 CFU/mL of pathological tested bacteria and 1×10^6 CFU/ml of yeast spread on NA and SDA, respectively. After the media was cooled and solidified, wells (10 mm in diameter) were made in the solidified agar and loaded with 100 μL of tested compound solution prepared by dissolving 10 mg of the chemical compound in one ml of dimethyl sulfoxide (DMSO). The inculcated plates were then incubated for 24 h at 37° C. for bacteria and yeast. Negative controls were prepared using DMSO employed for dissolving the tested compound. Ciprofloxacin (10 mg/ml) and ketoconazole (10 mg/ml) were used as standard for antibacterial and antifungal activity, respectively. After incubation time, antimicrobial activity was evaluated by measuring the zone of inhibition against the test organisms and compared with that of the standard. Antimicrobial activities were expressed as inhibition diameter zones in millimeters (mm). The experiment was carried out in triplicate and the average zone of inhibition was calculated.
# [3] = tested on: Bacillus subtilis ATCC 6633; experiment: as above; format: cell-based; settings: for zone of inhibition at 10000 µg/mL: Bacillus subtilis, ATCC6633, B. subtilis ATCC 6633, 100 μL of 10 mg/ml in DMSO, 24 h, read-out: Inhibition Diameter Zone BS; for antibacterial activity compared with reference drug: B. subtilis
# Description: as §1, §2
# [4] = tested on: Candida albicans NRRL Y-477; experiment: as above; format: cell-based; settings: for zone of inhibition at 10000 µg/mL: Candida albicans, NRRLY477, C. albicans NRRL Y-477, 100 μL of 10 mg/ml in DMSO, 24 h, read-out: Inhibition Diameter Zone CA; for antifungal activity compared with reference drug: C. albicans
# Description: as §1, §2
# [5] = tested on: Escherichia coli ATCC 2592; experiment: as above; format: cell-based; settings: for zone of inhibition at 10000 µg/mL: Escherichia coli, ATCC2592, E. coli ATCC 2592, 100 μL of 10 mg/ml in DMSO, 24 h, read-out: Inhibition Diameter Zone EC; for antibacterial activity compared with ciprofloxacin: E. coli
# Description: as §1, §2
# [6] = tested on: Pseudomonas aeruginosa ATCC 27953; experiment: as above; format: cell-based; settings: for zone of inhibition at 10000 µg/mL: Pseudomonas aeruginosa, ATCC27953, P. aeruginosa ATCC 27953, 100 μL of 10 mg/ml in DMSO, 24 h, read-out: Inhibition Diameter Zone PA
# Description: as §1, §2
# [7] = tested on: Saccharomyces cerevisiae (local isolate); experiment: as above; format: cell-based; settings: for zone of inhibition at 10000 µg/mL: Saccharomyces cerevisiae, 24 h, read-out: Inhibition Diameter Zone SC; for antimicrobial activity compared with ketoconazole: S. cerevisiae
# Description: as §1, §2
# trypsin = experiment: Proteinase inhibitory activity (trypsin/casein); format: biochemical; settings: for % Inhibition of proteinase activity: 250 μg/ml, mean ± SD (n = 3)
# Procedure: For proteinase inhibitory activity, the reaction mixture (2 ml) contained 0.06 mg trypsin, 20 mM Tris HCl buffer (pH 7.4) and 1 ml test sample (250 μg/ml for each compound). The mixture was incubated for 5 min and then 1 ml of 0.8% (w/v) casein was added. The mixture was incubated for an additional 20 min. 1 ml of 10% perchloric acid was added to arrest the reaction. The cloudy suspension was centrifuged, and the absorbance of the supernatant was read at 280 nm. Reference standard compound aspirin was used as the positive control for this assay. The experiment was performed in triplicate. Percentage inhibition of […] was calculated by using the following formula:
# [formula] where Acontrol is the absorbance of the control reaction and Atest is the absorbance of the control reaction with sample.
# [8] = tested on: Staphylococcus aureus ATCC 29213; experiment: Agar well diffusion, primary antimicrobial screening; format: cell-based; settings: for zone of inhibition at 10000 µg/mL: Staphylococcus aureus, ATCC29213, S. aureus ATCC 29213, 100 μL of 10 mg/ml in DMSO, 24 h, read-out: Inhibition Diameter Zone SA; for antibacterial activity compared with ciprofloxacin: S. aureus
# Description: as §1, §2
# tested microorganisms = experiment: Agar well diffusion, summary over the tested microorganisms; format: cell-based; settings: for antimicrobial activity compared with standard antimicrobials (ciprofloxacin and ketoconazole): against one or more microorganisms
# Description: as §1, §2
# [9] = S. cerevisiae local isolate, 100 μL of 10 mg/ml in DMSO
SMILES,IC50 [1],zone of inhibition at 10000 µg/mL [2],zone of inhibition at 10000 µg/mL [3],zone of inhibition at 10000 µg/mL [4],zone of inhibition at 10000 µg/mL [5],zone of inhibition at 10000 µg/mL [6],% Inhibition of proteinase activity (trypsin),melting point,"zone of inhibition at 10000 µg/mL [7, 9]",antibacterial activity compared with reference drug [3],antimicrobial activity compared with ketoconazole [7],antibacterial activity compared with ciprofloxacin [8],antimicrobial activity compared with standard antimicrobials (ciprofloxacin and ketoconazole) (tested microorganisms),also measured
"Cc1ccc2oc(=O)c3c(c2c1)OC(N=CN(C)C)=C(C#N)C3c1ccc([N+](=O)[O-])cc1 (racemic) [Compound 7a, (±)-N′-(3-cyano-9-methyl-4-(4-nitrophenyl)-5-oxo-4H,5H-pyrano[3,2-c]chromen-2-yl)-N,N-dimethylformimidamide]",— ((—): inactive (IC50 > 200 μg/mL)),< 15 mm,< 15 mm,< 15 mm,< 15 mm,< 15 mm,31.99 ± 2.45%,279 to 281 °C,,,,,,zone of inhibition at 10000 µg/mL [7]: < 15 mm
"Cc1ccc2oc(=O)c(S(=O)(=O)Nc3ccc(S(N)(=O)=O)cc3)c(O)c2c1 [Compound 10b, 4-Hydroxy-6-methyl-2-oxo-N-(4-sulfamoylphenyl)-2H-chromene-3-sulfonamide]",61.78 ± 2.719 µg/mL,< 15 mm,< 15 mm,< 15 mm,< 15 mm,< 15 mm,5.93 ± 2.11%,241 to 243 °C,< 15 mm,,,,,zone of inhibition at 10000 µg/mL [8]: < 15 mm; growth inhibition zones (tested microorganisms; against one or more of the tested microorganisms): < 15 mm
"O=c1oc2ccc(Cl)cc2c(O)c1S(=O)(=O)Nc1ccc(S(=O)(=O)Nc2ncccn2)cc1 [Compound 10c, 6-Chloro-4-hydroxy-2-oxo-N-(4-(N-(pyrimidin-2-yl)sulfamoyl)phenyl)-2H-chromene-3-sulfonamide]",120.12 ± 4.629 µg/mL,,,,,,,230 to 232 °C,31 mm,higher than the reference drug,higher than that of the corresponding control drug,higher than the control ciprofloxacin,equal to or higher than the standard antimicrobials,antibacterial activity compared with ciprofloxacin [2]: comparable to ciprofloxacin; antibacterial activity compared with ciprofloxacin [5]: comparable antibacterial potential
"Cc1ccc2oc(=O)c(S(=O)(=O)Nc3ccc(S(=O)(=O)Nc4ncccn4)cc3)c(O)c2c1 [Compound 10d, 4-hydroxy-6-methyl-2-oxo-N-(4-(N-(pyrimidin-2-yl)sulfamoyl)phenyl)-2H-chromene-3-sulfonamide]",112.19 ± 4.391 µg/mL,,,,,,36.84 ± 4.87%,207 to 209 °C,32 mm,higher than the reference drug,higher than that of the corresponding control drug,higher than the control ciprofloxacin,equal to or higher than the standard antimicrobials,antibacterial activity compared with ciprofloxacin [2]: comparable to ciprofloxacin; antifungal activity compared with reference drug [4]: higher antifungal activity; antimicrobial spectrum (tested microorganisms): broad-spectrum activity against all of the tested microorganisms
"Cc1ccc2oc(=O)c(S(=O)(=O)Nc3ccc(O)cc3)c(O)c2c1 [Compound 11d, 4-Hydroxy-N-(4-hydroxyphenyl)-6-methyl-2-oxo-2H-chromene-3-sulfonamide]",4.30 ± 0.531 µg/mL,,,,,,20.15 ± 7.31%,253 to 254 °C,32 mm,comparable antibacterial activities to the standard,higher than that of the corresponding control drug,higher than the control ciprofloxacin,equal to or higher than the standard antimicrobials,antioxidant activity ([1]; overview): particularly high antioxidant activity; antifungal activity compared with reference drug [4]: higher antifungal activity; antibacterial activity compared with ciprofloxacin [5]: higher antibacterial activity than ciprofloxacin; antibacterial activity compared with standard ([6]; P. aeruginosa): higher than that of the standard drugs
"CC(=O)c1ccc(NS(=O)(=O)c2c(O)c3cc(C)ccc3oc2=O)cc1 [Compound 11f, N-(4-acetylphenyl)-4-hydroxy-6-methyl-2-oxo-2H-chromene-3-sulfonamide]",35.36 ± 3.265 µg/mL,,,< 15 mm,< 15 mm,< 15 mm,2.0 ± 1.4%,231 to 232 °C,< 15 mm,,,,,
"O=C(/C=C/c1ccc([N+](=O)[O-])cc1)c1ccc(NS(=O)(=O)c2c(O)c3cc(Cl)ccc3oc2=O)cc1 [Compound 12a, (E)-6-chloro-4-hydroxy-N-(4-(3-(4-nitrophenyl)acryloyl)phenyl)-2-oxo-2H-chromene-3-sulfonamide]",— ((—): inactive (IC50 > 200 μg/mL)),,,< 15 mm,< 15 mm,< 15 mm,62.14±4.87%,205 to 207 °C,< 15 mm,,,,,in vitro anti-proteinase activity compared with aspirin (trypsin): more potent
"CC(=O)N1CCN(c2ccc(OCC3COC(Cn4ccnc4)(c4ccc(Cl)cc4Cl)O3)cc2)CC1 (stereo not drawn) [Ketoconazole, ketoconazole, reference compound]",,< 15 mm,< 15 mm,,< 15 mm,< 15 mm,,,,,,,,zone of inhibition at 10000 µg/mL [8]: < 15 mm

# From patent publication US10730885B1, “Coumarin derivatives” (KING SAUD UNIVERSITY, priority 2019, dated 2020)
